Measurements published in patent US20250289813A1, “CDK INHIBITORS, PHARMACEUTICAL COMPOSITIONS, AND THERAPEUTIC APPLICATIONS” (ONQUALITY PHARMACEUTICALS CHINA LTD., priority 2022, published 2025).
Blank lines part the entries; values can stand above or below the compound they belong to.

Assays:
CDK6/cyclin D1 = CDK6/cyclin D1 (Homo sapiens (Human), UniProt Q00534); assay: CDK6 Caliper Mobility Shift assay; type: biochemical
Outline: (§1)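 Caliper mobility-shift kinase assay with FAM-labeled peptide substrate. CDK4/cyclin D1 (15 nM) ran in 20 mM HEPES pH 7.5, 0.01% Triton X-100 at […] ATP; CDK6/cyclin D1 (7.5 nM) in 50 mM HEPES pH 7.5, 0.0015% BRIJ-35 at […] ATP. Compound was pre-incubated 10 min, reactions ran at 28 °C, and IC50 came from percent conversion inhibition.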

[1] = system: COLO205 human colon cancer cells; assay: CASPASE-GLO 3/7 apoptosis assay (protection against chemotherapy drug induced cytotoxicity); type: cell-based
Method: The CASPASE-GLO 3/7 apoptosis assay was used to evaluate the protective effect of a compound on the cytotoxicity induced by a chemotherapy drug. The apoptosis assay was carried out using COLO205 human colon cancer cells. The cells were grown at 37° C. in a 5% CO2 humidified incubator in PRIM1640 supplemented with 10% FBS and 0.01 mg/mL bovine insulin. The cells were seeded at 4,000 cells/well in a 96-well plate. After incubated overnight, the cells were pretreated with a compound at predetermined concentrations or a vehicle for 16 h, followed by addition of a chemotherapy drug. After incubated for another 48 h, the CASPASE-GLO 3/7 reagent (100 μL/well) was added. The cells were mixed on an orbital shaker for 10 min and incubated at room temperature for 2 h. The 96-well plate was read with an ENVISION reader.

BALB/c mice [2] = assay: Irinotecan-induced diarrhea/constipation mouse model; type: in vivo; conditions: Day 7
Method: A compound was evaluated in an irinotecan-induced diarrhea/constipation mouse model for its protective effect on the cytotoxicity induced by a chemotherapy drug. On day 0, BALB/c mice (20-25 g, 7-8 weeks of age) were randomly divided into 3 groups (vehicle, irinotecan, and compound treatment) with 10 mice in each group. In the vehicle group, the mice were administered orally with the same medium in the same amount as used in the treatment group for the compound and then injected with the same medium in the same amount as used in the irinotecan group. In the irinotecan group, the mice were administered orally with the same medium in the same amount as used in the treatment group for the compound and then injected with irinotecan (240 mg/kg). In the treatment group, the mice were administrated orally with the compound and then injected with irinotecan (240 mg/kg). The compound was formulated with a 0.5% CMC solution. […]
(§2) On Day 7, the diarrhea grade of each mouse was determined according to the method described in Kurita et al., Cancer Chemother. Pharmacol. 2000, 46, 211-20, the disclosure of which is incorporated herein by reference in its entirety. The diarrhea remission rates were calculated using the formula of Diarrhea remission rate (%)=(diarrhea grade in 5-FU group−diarrhea grade in treatment group)/diarrhea grade in 5-FU group×100%.

[3] = system: MCF-7 human breast cancer cells; assay: CELLTITER-GLO luminescent cell viability assay; type: cell-based; conditions: MCF7, 192 h, MCF-7 cells, 8 days, read-out: EC50 (Effect on Cell Viability)
Outline: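 MCF-7 cells grown in EMEM with 10% FBS and insulin, seeded at 3,000 cells/well and left to adhere overnight. Compound exposure lasted 8 days at 37 °C; viability was read by CellTiter-Glo luminescence.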

CDK4/cyclin D1 = CDK4/cyclin D1 (Homo sapiens (Human), UniProt P11802); assay: CDK4 Caliper Mobility Shift assay; type: biochemical
Sequence of CDK4/cyclin D1 (P11802 whole entry): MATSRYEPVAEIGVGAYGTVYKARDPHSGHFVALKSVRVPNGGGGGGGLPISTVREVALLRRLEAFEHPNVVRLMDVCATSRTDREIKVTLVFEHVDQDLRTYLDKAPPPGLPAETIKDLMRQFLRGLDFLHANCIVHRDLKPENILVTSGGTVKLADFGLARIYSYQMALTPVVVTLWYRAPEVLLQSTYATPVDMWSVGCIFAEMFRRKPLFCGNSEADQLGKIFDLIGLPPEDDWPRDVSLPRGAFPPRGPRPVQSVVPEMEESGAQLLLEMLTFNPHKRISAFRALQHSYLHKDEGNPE
Sequence of CDK4/cyclin D1 (P24385 whole entry partner): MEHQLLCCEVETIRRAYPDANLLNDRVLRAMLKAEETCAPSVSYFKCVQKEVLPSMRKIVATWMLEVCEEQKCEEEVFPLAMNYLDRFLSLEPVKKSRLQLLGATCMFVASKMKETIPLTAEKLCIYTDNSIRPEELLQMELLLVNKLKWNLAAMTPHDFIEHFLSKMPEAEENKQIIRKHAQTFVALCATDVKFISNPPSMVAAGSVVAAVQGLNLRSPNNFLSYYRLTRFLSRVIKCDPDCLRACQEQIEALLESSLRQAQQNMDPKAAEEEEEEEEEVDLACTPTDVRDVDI
Outline: as §1

BALB/c mice [4] = assay: 5-FU-induced diarrhea mouse model; type: in vivo; conditions: 8 h before and 4 h after 5-FU (175 mg/kg), day 7
Method: A compound was evaluated in a 5-FU-induced diarrhea mouse model for its protective effect on the cytotoxicity induced by the chemotherapy drug 5-FU. On day 0, BALB/c mice (20-25 g, 7-8 weeks of age) were randomly divided into 3 groups (vehicle, 5-FU, and compound treatment) with 10 mice in each group. In the vehicle group, the mice were administered orally with the same medium in the same amount as used in the treatment group for the compound and then injected with the same medium in the same amount as used in the 5-FU group. In the 5-FU group, the mice were administered orally with the same medium in the same amount as used in the treatment group for the compound and then injected with 5-FU (175 mg/kg). In the treatment group, the mice were administrated orally with the compound and then injected with 5-FU (175 mg/kg). The compound was formulated with a 0.5% CMC solution.
as §2, with “day” for “Day”, “Diarrhea” for “The diarrhea”, “group—diarrhea” for “group−diarrhea”

Sequence of CDK6/cyclin D1 (Q00534 whole entry): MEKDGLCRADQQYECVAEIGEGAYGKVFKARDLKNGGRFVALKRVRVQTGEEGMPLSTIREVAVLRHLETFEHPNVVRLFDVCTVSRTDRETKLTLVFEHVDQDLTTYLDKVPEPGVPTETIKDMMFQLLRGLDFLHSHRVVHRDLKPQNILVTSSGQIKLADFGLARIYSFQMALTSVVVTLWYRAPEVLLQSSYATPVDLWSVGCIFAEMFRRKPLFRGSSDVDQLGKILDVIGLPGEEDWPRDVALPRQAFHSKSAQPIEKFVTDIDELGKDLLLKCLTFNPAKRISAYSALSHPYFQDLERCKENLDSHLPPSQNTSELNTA
Sequence of CDK6/cyclin D1 (P24385 whole entry partner): as the sequence (P24385 whole entry partner) above

IC50 (CDK6/cyclin D1): ≤ 200 nM
EC50 [3]: > 10000 nM
IC50 (CDK4/cyclin D1): ≤ 200 nM
Compound: CC(=O)c1c(C)c2cnc(Nc3ccc(N4CCN(S(=O)(=O)NC(=O)OCCO)CC4)cn3)nc2n(C2CCCC2)c1=O [Compound A1, 2-hydroxyethyl ((4-(6-((6-acetyl-8-cyclopentyl-5-methyl-7-oxo-7,8-dihydropyrido[2,3-d]pyrimidin-2-yl)amino)pyridin-3-yl)piperazin-1-yl)sulfonyl)carbamate]
RPR (relative protection rate) ([1]; compound 0.1 μM, 5-Fu (10 μM)): 13%
RPR (relative protection rate) ([1]; compound 1 μM, 5-Fu (10 μM)): 82%
RPR (relative protection rate) ([1]; compound 5 μM, 5-Fu (10 μM)): 90%
RPR (relative protection rate) ([1]; compound 10 μM, 5-Fu (10 μM)): 68%
RPR (relative protection rate) ([1]; compound 100 μM, 5-Fu (10 μM)): 11%
Remission Rate (diarrhea remission rate) (BALB/c mice [2]; 5 mg/kg oral, 4 h before and 8 h after irinotecan (240 mg/kg)): 50%
Remission Rate (diarrhea remission rate) (BALB/c mice [2]; 25 mg/kg oral, 4 h before and 8 h after irinotecan (240 mg/kg)): 70%
Remission Rate (diarrhea remission rate) (BALB/c mice [2]; 100 mg/kg oral, 4 h before and 8 h after irinotecan (240 mg/kg)): 20%

IC50 (CDK6/cyclin D1): ≤ 200 nM
EC50 [3]: ≤ 1000 nM
IC50 (CDK4/cyclin D1): ≤ 200 nM
Compound: CC(=O)c1c(C)c2cnc(Nc3ccc(N4CCN(S(=O)(=O)NC(=O)[C@H](C)N)CC4)cn3)nc2n(C2CCCC2)c1=O [Compound A6, (S)—N-((4-(6-((6-acetyl-8-cyclopentyl-5-methyl-7-oxo-7,8-dihydropyrido[2,3-d]-pyrimidin-2-yl)amino)pyridin-3-yl)piperazin-1-yl)sulfonyl)-2-aminopropanamide]
RPR (relative protection rate) ([1]; compound 0.01 μM, Irinotecan (20 μM)): 20%
RPR (relative protection rate) ([1]; compound 0.2 μM, Irinotecan (20 μM)): 36%
RPR (relative protection rate) ([1]; compound 2 μM, Irinotecan (20 μM)): 89%
RPR (relative protection rate) ([1]; compound 20 μM, Irinotecan (20 μM)): 73%
RPR (relative protection rate) ([1]; compound 50 μM, Irinotecan (20 μM)): 57%
Remission Rate (diarrhea remission rate) (BALB/c mice [4]; 5 mg/kg oral): 20%
Remission Rate (diarrhea remission rate) (BALB/c mice [4]; 50 mg/kg oral): 66%
Remission Rate (diarrhea remission rate) (BALB/c mice [4]; 100 mg/kg oral): 33%

IC50 (CDK6/cyclin D1): ≤ 200 nM
EC50 [3]: 1000 to 10000 nM
IC50 (CDK4/cyclin D1): ≤ 200 nM
Compound: CC(=O)c1c(C)c2cnc(Nc3ccc(N4CCN(S(=O)(=O)N5CC(CO)OC5=O)CC4)cn3)nc2n(C2CCCC2)c1=O (stereo not drawn) [Compound A12, 3-((4-(6-((6-Acetyl-8-cyclopentyl-5-methyl-7-oxo-7,8-dihydropyrido[2,3-d]-pyrimidin-2-yl)amino)pyridin-3-yl)piperazin-1-yl)sulfonyl)-5-(hydroxymethyl)oxazolidin-2-one]
Remission Rate (diarrhea remission rate) (BALB/c mice [4]; 10 mg/kg oral): 50%
Remission Rate (diarrhea remission rate) (BALB/c mice [4]; 25 mg/kg oral): 90%

IC50 (CDK6/cyclin D1): ≤ 200 nM
EC50 [3]: 1000 to 10000 nM
IC50 (CDK4/cyclin D1): 200 to 500 nM
Compound: CC(=O)NCCOC(=O)NS(=O)(=O)N1CCN(c2ccc(Nc3ncc4c(C)c(C(C)=O)c(=O)n(C5CCCC5)c4n3)nc2)CC1 [Compound A15, 2-Acetamidoethyl ((4-(6-((6-acetyl-8-cyclopentyl-5-methyl-7-oxo-7,8-dihydropyrido[2,3-d]pyrimidin-2-yl)amino)pyridin-3-yl)piperazin-1-yl)sulfonyl)carbamate]
RPR (relative protection rate) ([1]; compound 0.1 μM, 5-Fu (10 μM)): 28%
RPR (relative protection rate) ([1]; compound 1 μM, 5-Fu (10 μM)): 84%
RPR (relative protection rate) ([1]; compound 10 μM, 5-Fu (10 μM)): 71%
Remission Rate (diarrhea remission rate) (BALB/c mice [2]; 10 mg/kg oral, 4 h before and 8 h after irinotecan (240 mg/kg)): 40%
Remission Rate (diarrhea remission rate) (BALB/c mice [2]; 50 mg/kg oral, 4 h before and 8 h after irinotecan (240 mg/kg)): 60%

IC50 (CDK6/cyclin D1): ≤ 200 nM
EC50 [3]: > 10000 nM
IC50 (CDK4/cyclin D1): 200 to 500 nM
Compound: CC(=O)c1c(C)c2cnc(Nc3ccc(N4CCN(S(=O)(=O)NC(=O)OC5CCOCC5)CC4)cn3)nc2n(C2CCCC2)c1=O [Compound A22, Tetrahydro-2H-pyran-4-yl ((4-(6-((6-acetyl-8-cyclopentyl-5-methyl-7-oxo-7,8-dihydropyrido[2,3-d]pyrimidin-2-yl)amino)pyridin-3-yl)piperazin-1-yl)sulfonyl)carbamate]
RPR (relative protection rate) ([1]; compound 0.5 μM, 5-Fu (10 μM)): 26%
RPR (relative protection rate) ([1]; compound 25 μM, 5-Fu (10 μM)): 64%
Remission Rate (diarrhea remission rate) (BALB/c mice [2]; 5 mg/kg oral, 6 h before and 6 h after irinotecan (240 mg/kg)): 30%
Remission Rate (diarrhea remission rate) (BALB/c mice [2]; 25 mg/kg oral, 6 h before and 6 h after irinotecan (240 mg/kg)): 50%
Remission Rate (diarrhea remission rate) (BALB/c mice [4]; 50 mg/kg oral): 55%
Remission Rate (diarrhea remission rate) (BALB/c mice [4]; 100 mg/kg oral): 36%

IC50 (CDK6/cyclin D1): 200 to 500 nM
EC50 [3]: 1000 to 10000 nM
IC50 (CDK4/cyclin D1): ≤ 200 nM
Compound: CC(=O)c1c(C)c2cnc(Nc3ccc(N4CCN(S(=O)(=O)NC(=O)C5CCCO5)CC4)cn3)nc2n(C2CCCC2)c1=O (stereo not drawn) [Compound A39, N-((4-(6-((6-Acetyl-8-cyclopentyl-5-methyl-7-oxo-7,8-dihydropyrido[2,3-d]-pyrimidin-2-yl)amino)pyridin-3-yl)piperazin-1-yl)sulfonyl)tetrahydrofuran-2-carboxamide]
RPR (relative protection rate) ([1]; compound 1 μM, Irinotecan (20 μM)): 79%
RPR (relative protection rate) ([1]; compound 10 μM, Irinotecan (20 μM)): 86%

IC50 (CDK6/cyclin D1): ≤ 200 nM
EC50 [3]: 1000 to 10000 nM
IC50 (CDK4/cyclin D1): ≤ 200 nM
Compound: CC(=O)c1c(C)c2cnc(Nc3ccc(N4CCN(S(=O)(=O)NCC(=O)O)CC4)cn3)nc2n(C2CCCC2)c1=O [Compound A44, ((4-(6-((6-Acetyl-8-cyclopentyl-5-methyl-7-oxo-7,8-dihydropyrido[2,3-d]-pyrimidin-2-yl)amino)pyridin-3-yl)piperazin-1-yl)sulfonyl)glycine]
RPR (relative protection rate) ([1]; compound 5 μM, 5-Fu (10 μM)): 90%
RPR (relative protection rate) ([1]; compound 20 μM, 5-Fu (10 μM)): 65%

IC50 (CDK6/cyclin D1): ≤ 200 nM
EC50 [3]: 1000 to 10000 nM
IC50 (CDK4/cyclin D1): ≤ 200 nM
Compound: CC(=O)c1c(C)c2cnc(Nc3ccc(N4CCN(S(=O)(=O)NC(=O)OCCNC(=O)[C@H](N)C(C)C)C[C@@H]4C)cn3)nc2n(C2CCCC2)c1=O [Compound A55, 2-((R)-2-Amino-3-methylbutanamido)ethyl (((S)-4-(6-((6-acetyl-8-cyclopentyl-5-methyl-7-oxo-7,8-dihydropyrido[2,3-d]pyrimidin-2-yl)amino)pyridin-3-yl)-3-methylpiperazin-1-yl)sulfonyl)carbamate]
RPR (relative protection rate) ([1]; compound 0.1 μM, 5-Fu (10 μM)): 38%
RPR (relative protection rate) ([1]; compound 10 μM, 5-Fu (10 μM)): 88%

IC50 (CDK6/cyclin D1): ≤ 200 nM
IC50 (CDK4/cyclin D1): ≤ 200 nM
Compound: CCS(=O)(=O)N1CCN(c2ccc(Nc3ncc4c(C)c(C(C)=O)c(=O)n(C5CCCC5)c4n3)nc2)CC1 [Compound C2, 6-Acetyl-8-cyclopentyl-2-((5-(4-(ethylsulfonyl)piperazin-1-yl)pyridin-2-yl)-amino)-5-methylpyrido[2,3-d]pyrimidin-7(81)-one]
RPR (relative protection rate) ([1]; compound 0.2 μM, 5-Fu (10 μM)): 59%
RPR (relative protection rate) ([1]; compound 2 μM, 5-Fu (10 μM)): 79%
RPR (relative protection rate) ([1]; compound 20 μM, 5-Fu (10 μM)): 87%
Remission Rate (diarrhea remission rate) (BALB/c mice [2]; 75 mg/kg oral, 4 h before and 8 h after irinotecan (240 mg/kg)): 30%
Remission Rate (diarrhea remission rate) (BALB/c mice [4]; 75 mg/kg oral): 50%
